Test results reported in patent publication US20090053721A1, “VOLTAGE-GATED ION CHANNEL MUTANTS FOR USE IN IDENTIFYING ION CHANNEL MODULATING COMPOUNDS” (CARDIOME PHARMA CORP., priority 2007, published 2009).
Where a name gives a salt, the structure may show the parent alone.

Experiments:
IKs (KvLQT1) = IKs (KvLQT1) (Homo sapiens, UniProt P51787); test: Sensitivity of IKs channel to vernakalant (unpublished data)
atrial fibrillation = settings: intravenous; within 90 min of infusion; phase II and III trials; cited from earlier work
[1] = target: T1, Kv1.5 P532L mutant channel (Homo sapiens, UniProt P22460, P532L); test: Whole-cell patch-clamp block of mutant Kv1.5 current in HEK293 cells; type: cell-based
T1 construct: subcloned as a fragment back into full-length Kv1.5; expressed in transfected cells; host or cells: HEK293, transient transfection
T1 sequence (P22460 whole entry P532L, the tested form may be a part): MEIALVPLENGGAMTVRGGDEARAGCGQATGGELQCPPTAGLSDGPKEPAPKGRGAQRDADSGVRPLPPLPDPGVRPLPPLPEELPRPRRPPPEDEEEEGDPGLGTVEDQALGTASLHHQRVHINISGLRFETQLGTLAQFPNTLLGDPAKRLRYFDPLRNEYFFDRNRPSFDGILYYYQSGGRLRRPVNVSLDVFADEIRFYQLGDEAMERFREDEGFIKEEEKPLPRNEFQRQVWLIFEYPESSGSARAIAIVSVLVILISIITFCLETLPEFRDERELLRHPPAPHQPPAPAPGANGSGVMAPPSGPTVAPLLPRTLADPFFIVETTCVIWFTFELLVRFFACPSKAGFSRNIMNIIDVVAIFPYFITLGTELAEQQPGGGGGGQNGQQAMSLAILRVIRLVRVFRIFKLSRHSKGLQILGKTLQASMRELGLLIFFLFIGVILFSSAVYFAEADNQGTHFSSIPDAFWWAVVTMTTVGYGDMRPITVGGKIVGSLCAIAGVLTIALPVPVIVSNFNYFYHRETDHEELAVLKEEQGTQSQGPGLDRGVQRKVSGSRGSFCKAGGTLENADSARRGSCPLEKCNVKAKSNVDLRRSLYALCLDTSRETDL
Description: (§1) Stable lines of HEK293 cells expressing Kv1.5, or transient transfection of mutant Kv1.5 channels were used in all experiments. […] (Coralville, Iowa, USA), and mutants were generated using the Stratagene Quikchange kit (Stratagene, Calif., USA). […] This was added to the cells for overnight incubation after washing the media with 900 μl of MEM with 10% FBS. […] Media contained 10% bovine serum and 0.5 mg/ml geneticin for stable lines. On the day before recording, stably-expressing cells were washed with MEM, treated with trypsin/EGTA for one minute and plated on 25 mm^2 coverslips. All cell culture supplies were obtained from Invitrogen (Mississauga, ON, Canada). Control bath solution contained (in mM): 5 KCl, 135 NaCl, 2.8 sodium acetate, 1 MgCl2, 10 HEPES and 1 CaCl2, adjusted to pH 7.4 with NaOH. Patch pipettes contained (in mM): 130 KCl, 5 EGTA, 1 MgCl2, 10 HEPES, 4 Na2ATP, and 0.1 GTP, adjusted to pH 7.2 with KOH. All chemicals used to make solutions were obtained from Sigma-Aldrich (Mississauga, ON, Canada). […] (Vancouver, BC, Canada) and prepared as a stock solution (50 mM) in H2O. […] DMSO concentrations for either drug never exceeded 0.1% v/v in the final experimental solutions. Coverslips with adherent cells plated on the surface were placed in a superfusion chamber (volume 300 μl) containing the control bath solution at 22° C. Whole-cell current recording and analysis were carried out using an Axopatch 200B amplifier and pClamp10 software (Axon Instruments, CA, USA). Patch electrodes were pulled from thin-walled borosilicate glass (World Precision Instruments, FL, USA) on a horizontal micropipette puller (Sutter Instruments, CA, USA). […] Analogue capacity compensation and 80% series resistance compensation were used during whole cell measurements. Membrane potentials were not corrected for junction potentials that arise between the pipette and bath solution. […] Data were sampled at 10-20 kHz and filtered at 5 to 10 kHz. […] Data are represented as mean±SE unless otherwise specified. For significance of differences, * represents p<0.05, ** p<0.01; statistical analysis was conducted using Student's t-test (unpaired). Clampfit software (Axon Instruments, CA, USA) was used to analyze current traces. Data from each test pulse (currents in the presence of drug) were normalized to control test pulse currents obtained before drug exposure. […] IC50 is the concentration producing half-maximal inhibition; and n is the Hill coefficient.

[2] = target: T2, Kv1.5 T480A mutant channel (Homo sapiens, UniProt P22460, T480A); test: as above; type: cell-based
T2 construct: subcloned as a fragment back into full-length Kv1.5; expressed in transfected cells; host or cells: HEK293, transient transfection
T2 sequence (P22460 whole entry T480A, the tested form may be a part): as the sequence (P22460 whole entry P532L, the tested form may be a part) above, with T480A, L532P counted along it
Description: as §1

[3] = target: T3, Kv1.5 T480S mutant channel (Homo sapiens, UniProt P22460, T480S); test: as above; type: cell-based
T3 construct: subcloned as a fragment back into full-length Kv1.5; expressed in transfected cells; host or cells: HEK293, transient transfection
T3 sequence (P22460 whole entry T480S, the tested form may be a part): as the sequence (P22460 whole entry P532L, the tested form may be a part) above, with T480S, L532P counted along it
Description: as §1

[4] = target: T4, Kv1.5 T479S mutant channel (Homo sapiens, UniProt P22460, T479S); test: as above; type: cell-based
T4 construct: subcloned as a fragment back into full-length Kv1.5; expressed in transfected cells; host or cells: HEK293, transient transfection
T4 sequence (P22460 whole entry T479S, the tested form may be a part): as the sequence (P22460 whole entry P532L, the tested form may be a part) above, with T479S, L532P counted along it
Description: as §1

[5] = target: T5, Kv1.5 C500A mutant channel (Homo sapiens, UniProt P22460, C500A); test: as above; type: cell-based
T5 construct: subcloned as a fragment back into full-length Kv1.5; expressed in transfected cells; host or cells: HEK293, transient transfection
T5 sequence (P22460 whole entry C500A, the tested form may be a part): as the sequence (P22460 whole entry P532L, the tested form may be a part) above, with C500A, L532P counted along it
Description: as §1

[6] = target: T6, Kv1.5 I508L mutant channel (Homo sapiens, UniProt P22460, I508L); test: as above; type: cell-based
T6 construct: subcloned as a fragment back into full-length Kv1.5; expressed in transfected cells; host or cells: HEK293, transient transfection
T6 sequence (P22460 whole entry I508L, the tested form may be a part): as the sequence (P22460 whole entry P532L, the tested form may be a part) above, with I508L, L532P counted along it
Description: as §1

[7] = target: T7, Kv1.5 A501V mutant channel (Homo sapiens, UniProt P22460, A501V); test: as above; type: cell-based
T7 construct: subcloned as a fragment back into full-length Kv1.5; expressed in transfected cells; host or cells: HEK293, transient transfection
T7 sequence (P22460 whole entry A501V, the tested form may be a part): as the sequence (P22460 whole entry P532L, the tested form may be a part) above, with A501V, L532P counted along it
Description: as §1

[8] = target: T8, Kv1.5 V505L mutant channel (Homo sapiens, UniProt P22460, V505L); test: as above; type: cell-based
T8 construct: subcloned as a fragment back into full-length Kv1.5; expressed in transfected cells; host or cells: HEK293, transient transfection
T8 sequence (P22460 whole entry V505L, the tested form may be a part): as the sequence (P22460 whole entry P532L, the tested form may be a part) above, with V505L, L532P counted along it
Description: as §1

[9] = target: T9, Kv1.5 I508Y mutant channel (Homo sapiens, UniProt P22460, I508Y); test: as above; type: cell-based
T9 construct: subcloned as a fragment back into full-length Kv1.5; expressed in transfected cells; host or cells: HEK293, transient transfection
T9 sequence (P22460 whole entry I508Y, the tested form may be a part): as the sequence (P22460 whole entry P532L, the tested form may be a part) above, with I508Y, L532P counted along it
Description: as §1

IKs (KvLQT1), sequence (P51787 whole entry, the tested form may be a part): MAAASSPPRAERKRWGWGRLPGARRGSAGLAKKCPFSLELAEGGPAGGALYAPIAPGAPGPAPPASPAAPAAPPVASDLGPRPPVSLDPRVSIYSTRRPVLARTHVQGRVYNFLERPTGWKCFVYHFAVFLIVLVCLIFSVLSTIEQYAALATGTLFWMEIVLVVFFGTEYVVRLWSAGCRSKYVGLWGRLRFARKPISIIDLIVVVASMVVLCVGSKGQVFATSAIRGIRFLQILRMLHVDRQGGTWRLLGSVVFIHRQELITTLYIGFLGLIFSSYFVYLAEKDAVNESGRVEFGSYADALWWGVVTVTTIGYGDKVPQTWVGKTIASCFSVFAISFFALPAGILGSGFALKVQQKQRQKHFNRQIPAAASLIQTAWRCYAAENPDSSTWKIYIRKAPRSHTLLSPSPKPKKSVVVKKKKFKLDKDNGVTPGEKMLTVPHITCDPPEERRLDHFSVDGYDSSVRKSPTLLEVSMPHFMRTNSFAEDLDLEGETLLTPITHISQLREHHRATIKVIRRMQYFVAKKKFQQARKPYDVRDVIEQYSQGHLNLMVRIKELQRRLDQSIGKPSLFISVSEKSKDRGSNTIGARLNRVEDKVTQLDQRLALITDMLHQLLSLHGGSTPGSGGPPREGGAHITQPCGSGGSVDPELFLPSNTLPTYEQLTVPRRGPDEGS

In the case of `COc1ccc(CCO[C@@H]2CCCC[C@H]2N2CC[C@@H](O)C2)cc1OC` [Vernakalant, 3-Pyrrolidinol, 1-[(1R,2R)-2-[2-(3,4-dimethoxyphenyl)ethoxy]cyclohexyl]-,hydrochloride, (3R)], the “sensitivity of IKs channel to drug” value (IKs (KvLQT1)) is given as “not sensitive”, the “overall rate of conversion of AF to sinus rhythm” value (atrial fibrillation) is given as roughly 52% and the Hill coefficient [1] is given as 0.96. For the same compound, the “Fractional Block ± SEM” value ([1]; 10 μM vernakalant) was 0.26 ± 0.03, the Hill coefficient [2] was 0.88 and the “Fractional Block ± SEM” value ([2]; 10 μM vernakalant) was 0.23 ± 0.04. For the same compound, the Hill coefficient [3] was 0.64, the “Fractional Block ± SEM” value ([3]; 10 μM vernakalant) was 0.25 ± 0.07 and the Hill coefficient [4] was 0.95. For the same compound, the “Fractional Block ± SEM” value ([4]; 10 μM vernakalant) was 0.23 ± 0.04, the Hill coefficient [5] was 0.95 and the “Fractional Block ± SEM” value ([5]; 10 μM vernakalant) was 0.21 ± 0.04. The Hill coefficient [6] was 1.00, the “Fractional Block ± SEM” value ([6]; 10 μM vernakalant) was 0.38 ± 0.05 and the Hill coefficient [7] was 0.85. The “Fractional Block ± SEM” value ([7]; 10 μM vernakalant) was 0.69 ± 0.04, the Hill coefficient [8] was 0.77 and the “Fractional Block ± SEM” value ([8]; 10 μM vernakalant) was 0.22 ± 0.07. The Hill coefficient [9] was 1.46 and the “Fractional Block ± SEM” value ([9]; 10 μM vernakalant) was 0.21 ± 0.03.
